We go through two molecules from US4198506A, “2-Carboxyalkyl-2,3-dihydro-6-mercapto-s-triazolo[4,3-b]-pyridazin-3-ones” (Bristol-Myers Company, priority 1979, dated 1980).

≈ marks a conversion by molar mass, not a printed value. Where “and” joins values, the source holds several entries; their conditions need not be identical. Identical values can stand only once. Like-named read-outs stand apart in the source and are kept apart here.

In one data set the test system is E. coli Juhl. Kind of data set: In vivo activity (Mice, sc). The following applies: several determinations listed. The source says:
(§1) |In vivo Activity of BB-[…] and Related Compounds (Mice, sc) | (PD50 (mgm./kg.)

Another data set relates to S. aureus Smith. Put plainly: In vivo activity (Mice, sc). To be noted: several determinations listed; for ED50: Staphylococcus aureus, read-out: PD50.
Description: as §1

Data set [1] deals with Enterobacter (Cephalosporinase +). Put plainly: In vitro activity (geometric mean MIC, serial dilution). Type of data set: cell-based. To be noted: 7 strains, Mueller-Hinton agar, inoculum 10^4 dilution, MIC cutoff 200 mcg./ml.
The subject of a further data set is rabbits. Kind of data set: Preliminary nephrotoxicity study. Type of data set: in vivo. To be noted: two rabbits, 100 mg./kg. intravenously. The protocol:
A preliminary nephrotoxicity study was carried out by administration of the test compound to a group of two rabbits at 100 mg./kg. intravenously.

A further data set deals with Pr. rettgeri. Put plainly: In vitro antibacterial activity (Steers' agar dilution MIC). In kind it is cell-based. To be noted: Providencia rettgeri.
The test system of another data set is Pr. mirabilis. The description is as above. In kind it is cell-based. The following applies: Proteus mirabilis.
A further data set deals with Pr. morganii. The description is as above. Type of data set: cell-based. The following applies: Morganella morganii.
Another data set concerns Enterob. cloacae. The data set is described as above. Type of data set: cell-based.
The test system of data set [2] is S. aureus (Methicillin-R). Put plainly: In vitro activity (geometric mean MIC, serial dilution). In kind it is cell-based. To be noted: Staphylococcus aureus; 15 strains; Mueller-Hinton agar, inoculum 10^4 dilution; MIC cutoff 200 mcg./ml.
The test system of data set [3] is S. aureus penicillinase+). Described as above. In kind it is cell-based. To be noted: Staphylococcus aureus, read-out: Geometric Mean MIC.
The mark [4] stands for this setting: table 2 (BB-S493), Pr. rettgeri A15167.
The mark [5] stands for this setting: table 4 (BB-S 525), Pr. rettgeri.
Where [6] appears, read: table 4 (BB-S 525), Pr. mirabilis, 2nd line, read-out: MIC.
[7] abbreviates: table 2 (BB-S493), Pr. morganii A9553, read-out: MIC.

With `CNCc1ccccc1CC(=O)N[C@@H]1C(=O)N2C(C(=O)O)=C(CSc3ccc4nn(CC(=O)O)c(=O)n4n3)CS[C@H]12` [BB-S479, 7-[o-(Methylaminomethyl)phenylacetamido]-3-(2-carboxymethyl-2,3-dihydro-s-triazolo[4,3-b]pyridazin-3-on-6-ylthiomethyl)-3-cephem-4-carboxylic Acid], the ED50 in the data set on E. coli Juhl (Escherichia coli, read-out: PD50) turned out to be 0.19 mg/kg; in the data set on S. aureus Smith, 0.16 mg/kg. For the same molecule, the PD50 in the data set with E. coli Juhl is 0.15 mgm./kg. and 0.12 mgm./kg; in the data set with S. aureus Smith it was 0.12 mgm./kg. and 0.2 mgm./kg. Moreover, the minimal inhibitory concentration (MIC) in data set [1] was found to be 2.1 µg/mL (≈ 3.5 µM); in the data set on Pr. rettgeri (setting [4]) it was 0.1 µg/mL (≈ 0.167 µM); with Pr. rettgeri (setting [5]), 0.8 µg/mL (≈ 1.33 µM); with Pr. mirabilis (table 2 (BB-S493), Pr. mirabilis A9554, read-out: MIC) it was 0.1 µg/mL (≈ 0.167 µM); with Pr. mirabilis (table 2 (BB-S493), Pr. mirabilis A9900, read-out: MIC), 0.1 µg/mL (≈ 0.167 µM); in the data set with Pr. mirabilis (table 4 (BB-S 525), Pr. mirabilis, 1st line, read-out: MIC) it was 0.1 µg/mL (≈ 0.167 µM). For the same molecule, the minimum inhibitory concentration (MIC) in the data set with Pr. mirabilis (setting [6]) was 0.1 µg/mL (≈ 0.167 µM); in the data set with Pr. morganii (setting [7]) it was over 100 µg/mL; in the data set with Pr. morganii (table 2 (BB-S493), Pr. morganii A20031, read-out: MIC) it was 0.1 µg/mL (≈ 0.167 µM); in the data set with Pr. morganii (table 4 (BB-S 525), Pr. morganii, 1st line, read-out: MIC), over 100 µg/mL; in the data set on Pr. morganii (table 4 (BB-S 525), Pr. morganii, 2nd line, read-out: MIC), 0.2 µg/mL (≈ 0.334 µM); in the data set with Enterob. cloacae (table 2 (BB-S493), Enterob. cloacae A9656, read-out: MIC), 1.6 µg/mL (≈ 2.67 µM). For the same molecule, the minimum inhibitory concentration (MIC) in the data set with Enterob. cloacae (table 4 (BB-S 525), Enterob. cloacae, read-out: MIC) was found to be 3.1 µg/mL (≈ 5.17 µM); in [2], 35 µg/mL (≈ 58.4 µM); in [3], 0.9 µg/mL (≈ 1.5 µM). Also, the nephrotoxic potential result in the data set with rabbits was “little nephrotoxic potential”.

`Cn1nnnc1SCC1=C(C(=O)O)N2C(=O)[C@@H](NC(=O)[C@H](O)c3ccccc3)[C@H]2SC1` [Cefamandole, reference compound]: the ED50 in the data set with S. aureus Smith amounted to 0.93 mg/kg. Moreover, in the data set on S. aureus Smith, the PD50 was 0.74 mgm./kg. and 0.6 mgm./kg. and 0.8 mgm./kg. Moreover, the minimum inhibitory concentration (MIC) in [1] came out at 4.7 µg/mL (≈ 10.2 µM); against Pr. rettgeri (setting [4]), 0.1 µg/mL (≈ 0.216 µM); with Pr. rettgeri (setting [5]), 0.1 µg/mL (≈ 0.216 µM); with Pr. mirabilis (table 2 (BB-S493), Pr. mirabilis A9554), 0.8 µg/mL (≈ 1.73 µM); against Pr. mirabilis (table 2 (BB-S493), Pr. mirabilis A9900) it was 0.8 µg/mL (≈ 1.73 µM); against Pr. mirabilis (table 4 (BB-S 525), Pr. mirabilis, 1st line), 0.4 µg/mL (≈ 0.865 µM). The MIC was 0.2 µg/mL (≈ 0.432 µM) in the data set on Pr. mirabilis (setting [6]); over 100 µg/mL with Pr. morganii (setting [7]); 0.8 µg/mL (≈ 1.73 µM) in the data set on Pr. morganii (table 2 (BB-S493), Pr. morganii A20031); 3.1 µg/mL (≈ 6.7 µM) against Pr. morganii (table 4 (BB-S 525), Pr. morganii, 1st line); 0.8 µg/mL (≈ 1.73 µM) against Pr. morganii (table 4 (BB-S 525), Pr. morganii, 2nd line); 3.1 µg/mL (≈ 6.7 µM) against Enterob. cloacae (table 2 (BB-S493), Enterob. cloacae A9656). Moreover, the minimum inhibitory concentration (MIC) against Enterob. cloacae (table 4 (BB-S 525), Enterob. cloacae) came out at 1.6 µg/mL (≈ 3.46 µM); in data set [2] it was 2.4 µg/mL (≈ 5.19 µM); in data set [3], 0.4 µg/mL (≈ 0.865 µM).

Usually MIC stands for the least concentration at which growth counts as inhibited.
